Test results as given in ChEMBL document CHEMBL5390250, “Synthesis and biological evaluation of bi-modal BODIPY-conjugated Hoechst applicable for Auger-electron and photodynamic cancer therapy” (Bioorg Med Chem Lett, 2023).
The source made the active and inactive calls. The rule behind the calls is not given here.

Key:
[1] = Induction of singlet oxygen production in MeOH assessed as singlet oxygen quantum yield; assay type: functional
[2] = Fluorescence property of compound in MeOH assessed as quantum yield by spectroscopic analysis; assay type: physicochemical
[3] = tested on: HeLa; test: Photocytotoxicity against human HeLa cells assessed as reduction in cell viability at 1600 nM preincubated for 24 hrs followed by light irradiation at 525 nm for 6 mins by MTT assay relative to control; assay type: functional
[4] = tested on: HeLa; test: Antiproliferative activity against human HeLa cells assessed as auger electron mediated reduction in cell viability measured after 6 hrs by MTT assay; assay type: functional, cell-based; conditions: dose <= 18.5 kBq, tested as the 125I-labelled form
[5] = Emission property of compound in MeOH assessed as maximal wavelength by spectroscopic analysis; assay type: physicochemical
[6] = Absorption property of compound in MeOH assessed as maximal wavelength by spectroscopic analysis; assay type: physicochemical
[7] = tested on: HeLa; test: Antiproliferative activity against human HeLa cells assessed as reduction in cell viability measured after 6 hrs by MTT assay; assay type: functional, cell-based
[8] = Fluorescence property of compound in MeOH assessed as molar extinction coefficient by spectroscopic analysis; assay type: physicochemical
[9] = tested on: HeLa; test: Photocytotoxicity against human HeLa cells assessed as reduction in cell viability preincubated for 24 hrs followed by light irradiation at 525 nm for 6 mins by MTT assay; assay type: functional, cell-based; conditions: for Activity: dose <= 1600.0 nM, time 1446.0 min; for IC50: light or radiation study
[10] = tested on: HeLa; test: Photocytotoxicity against human HeLa cells assessed as reduction in cell viability upto 1600 nM measured after 24 hrs under dark condition by MTT assay; assay type: functional, cell-based
[11] = Induction of singlet oxygen production in MeOH assessed as singlet oxygen quantum yield at 410 nm by DPBF based assay; assay type: functional
[12] = tested on: HeLa; test: Induction of DNA damage in human HeLa cells assessed as increase in gamma H2AX foci density in nucleus measured after 2 hrs by immmunofluorescence staining based analysis; assay type: functional, cell-based; conditions: dose <= 18.5 kBq, tested as the 125I-labelled form
[13] = tested on: HeLa; test: Induction of DNA damage in human HeLa cells assessed as increase in gamma H2AX foci in nuclei at 18.5 kBq measured after 2 hrs by immmunofluorescence staining based analysis; assay type: functional, cell-based; conditions: tested as the 125I-labelled form
[14] = Drug uptake in nucleus of human HeLa cells measured upto 6 hrs; assay type: ADME, subcellular
[15] = Drug uptake in human HeLa cells assessed as increase in intracellular fraction measured upto 6 hrs; assay type: ADME, cell-based
[16] = tested on: HeLa; test: Antiproliferative activity against human HeLa cells assessed as auger electron mediated reduction in cell viability at 18.5 kBq measured after 6 hrs by MTT assay relative to control; assay type: functional
[17] = Fluorescence property of compound in toluene assessed as quantum yield; assay type: physicochemical
[18] = Absorption property of compound in MeOH assessed as maximal wavelength; assay type: physicochemical
[19] = Fluorescence property of compound in MeOH assessed as molar extinction coefficient; assay type: physicochemical
[20] = Emission property of compound in MeOH assessed as maximal wavelength; assay type: physicochemical

O=C(O)c1c(Cl)c(Cl)c(Cl)c(Cl)c1-c1c2cc(I)c(=O)c(I)c-2oc2c(I)c(O)c(I)cc12
Activity [1]: 0.76

CC1=C(I)C(C)=[N+]2C1=C(c1ccc(C(=O)NCCCCOc3ccc(-c4nc5ccc(-c6nc7ccc(N8CCN(C)CC8)cc7[nH]6)cc5[nH]4)cc3)cc1)c1c(C)c(I)c(C)n1[B-]2(F)F
Activity [2]: 0.04
Activity [3]: 29%
Activity [4]: Dose-Dependent Effect
Activity [5]: 552 nm
Activity [6]: 533 nm
Activity [7]: inactive
Activity [8]: 20600 M⁻¹ cm⁻¹
Activity [9]: Dose-Dependent Effect
IC50 [9]: 195 nM
Activity [10]: inactive
Activity [11]: 0.41
Activity [12]: Dose-Dependent Effect
Activity [13]: Active

CC1=C([125I])C(C)=[N+]2C1=C(c1ccc(C(=O)NCCCCOc3ccc(-c4nc5ccc(-c6nc7ccc(N8CCN(C)CC8)cc7[nH]6)cc5[nH]4)cc3)cc1)c1c(C)cc(C)n1[B-]2(F)F
Drug uptake [14]: Active
Drug uptake [15]: Active
Activity [16]: 60%

CC1=C(I)C(C)=[N+]2C1=C(c1ccc(C(=O)ON3C(=O)CCC3=O)cc1)c1c(C)cc(C)n1[B-]2(F)F
Activity [17]: 0.11

CC1=C([125I])C(C)=[N+]2C1=C(c1ccc(C(=O)NCCCCOc3ccc(-c4nc5ccc(-c6nc7ccc(N8CCN(C)CC8)cc7[nH]6)cc5[nH]4)cc3)cc1)c1c(C)c(I)c(C)n1[B-]2(F)F
Drug uptake [14]: Active
Drug uptake [15]: Active
Activity [16]: 43%

CN(C)c1ccc2cc3ccc(N(C)C)cc3[n+](CCCCCNC(=O)c3ccc([125I])cc3)c2c1
Activity [16]: 64%

CC1=C(I)C(C)=[N+]2C1=C(c1ccc(C(=O)NCCCCOc3ccc(-c4nc5ccc(-c6nc7ccc(N8CCN(C)CC8)cc7[nH]6)cc5[nH]4)cc3)cc1)c1c(C)cc(C)n1[B-]2(F)F
Activity [2]: 0.06
Activity [3]: 50%
Activity [18]: 517 nm
Activity [4]: Dose-Dependent Effect
Activity [9]: Dose-Dependent Effect
IC50 [9]: 702 nM
Activity [19]: 22000 M⁻¹ cm⁻¹
Activity [10]: inactive
Activity [11]: 0.32
Activity [20]: 532 nm
Activity [12]: Dose-Dependent Effect
Activity [13]: Active

CN(C)c1ccc2cc3ccc(N(C)C)cc3[n+](CCCCCNC(=O)c3ccc(I)cc3)c2c1
Activity [4]: Dose-Dependent Effect
